Test results as given in the supplement of paper PMC8671470.

Experiments:
Settings in all cases: 72 h
K-562 [1] = test: cell viability (% survival relative to DMSO control, bortezomib = 0%); higher = less cytotoxic
Method in brief: (§1)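 Fifteen myeloid leukaemia cell lines (10 AML, 5 CML) were seeded at a density titrated to the linear growth range into 384-well plates pre-printed with compounds at 1, 10, 100, 1000 or 10000 nM in duplicate. Plates were incubated for 72 h at 37 °C with 5% CO2. Viability was then read by CellTiter-Glo luminescence. Each value is percent survival averaged over the duplicates, with vehicle set to 100% and a 10 µM positive control to 0%.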

MOLM-13 [2] = test: as above
Method in brief: as §1

SHI-1 [3] = test: as above
Method in brief: as §1

KU-812 [4] = test: as above
Method in brief: as §1

Mono-Mac-6 [5] = test: as above
Method in brief: as §1

THP-1 [6] = test: as above
Method in brief: as §1

ML-2 [7] = test: as above
Method in brief: as §1

KCL-22 [8] = test: as above
Method in brief: as §1

HL-60 [9] = test: as above
Method in brief: as §1

BV-173 [10] = test: as above
Method in brief: as §1

MV4-11 [11] = test: as above
Method in brief: as §1

HEL [12] = test: as above
Method in brief: as §1

KG-1 [13] = test: as above
Method in brief: as §1

LAMA-84 [14] = test: as above
Method in brief: as §1

NOMO-1 [15] = test: as above
Method in brief: as §1

K-562 [16] = system: K-562
Method in brief: (§2)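 The IC50 was read from log-logistic dose–response fits. Fifteen myeloid leukaemia lines were exposed for 72 h at 37 °C with 5% CO2 to five tenfold doses from 1 to 10,000 nM in duplicate. ATP luminescence, normalised to vehicle and to a 10 µM positive control, was fitted with four parameters.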

MOLM-13 [17] = system: MOLM-13
Method in brief: as §2

SHI-1 [18] = system: SHI-1
Method in brief: as §2

KU-812 [19] = system: KU-812
Method in brief: as §2

Mono-Mac-6 [20] = system: Mono-Mac-6
Method in brief: as §2

THP-1 [21] = system: THP-1
Method in brief: as §2

ML-2 [22] = system: ML-2
Method in brief: as §2

KCL-22 [23] = system: KCL-22
Method in brief: as §2

HL-60 [24] = system: HL-60
Method in brief: as §2

BV-173 [25] = system: BV-173
Method in brief: as §2

MV4-11 [26] = system: MV4-11
Method in brief: as §2

HEL [27] = system: HEL
Method in brief: as §2

KG-1 [28] = system: KG-1
Method in brief: as §2

LAMA-84 [29] = system: LAMA-84
Method in brief: as §2

NOMO-1 [30] = system: NOMO-1
Method in brief: as §2

COC(=O)c1cc2c(C(F)(F)F)cc(-c3ccccc3)cc2n1O [NHI-2]
cell viability [%]
Settings | 1 nM | 10 nM | 100 nM | 1000 nM | 10000 nM
BV-173 [10] | 100 | 100 | 101 | 73.7 | 94.2
HEL [12] | 83.5 | 91.9 | 90.4 | 89.4 | 92.5
HL-60 [9] | 98.5 | 90.3 | 95.2 | 97.2 | 96.8
K-562 [1] | 98.8 | 91.1 | 93.8 | 87.4 | 85.4
KCL-22 [8] | 91.9 | 88.8 | 104 | 110 | 92.7
KG-1 [13] | 97.6 | 90.8 | 100 | 85.9 | 97.7
KU-812 [4] | 97.6 | 96.9 | 97.7 | 96.8 | 84.3
LAMA-84 [14] | 91.9 | 95 | 93.9 | 87.5 | 76.4
ML-2 [7] | 94.8 | 95.1 | 109 | 102 | 107
MOLM-13 [2] | 87 | 80.6 | 91.3 | 95.6 | 105
MV4-11 [11] | 99.7 | 91.1 | 91.2 | 85.3 | 94.3
Mono-Mac-6 [5] | 93.6 | 102 | 114 | 89.5 | 103
NOMO-1 [15] | 101 | 102 | 92.2 | 97.4 | 102
SHI-1 [3] | 96.6 | 104 | 97.3 | 93.6 | 96.9
THP-1 [6] | 97.4 | 99.3 | 104 | 98.9 | 108

Settings | IC50 (cell viability) [µM]
BV-173 [25] | > 10
HEL [27] | > 10
HL-60 [24] | > 10
K-562 [16] | > 10
KCL-22 [23] | > 10
KG-1 [28] | > 10
KU-812 [19] | > 10
LAMA-84 [29] | > 10
ML-2 [22] | > 10
MOLM-13 [17] | > 10
MV4-11 [26] | > 10
Mono-Mac-6 [20] | > 10
NOMO-1 [30] | > 10
SHI-1 [18] | > 10
THP-1 [21] | > 10

O=C1C(SCCO)=C(SCCO)C(=O)c2ccccc21
cell viability [%]
Settings | 1 nM | 10 nM | 100 nM | 1000 nM | 10000 nM
BV-173 [10] | 107 | 106 | 98.5 | 0.154 | -0.205
HEL [12] | 110 | 107 | 103 | 69.8 | -0.489
HL-60 [9] | 123 | 115 | 122 | 101 | -0.447
K-562 [1] | 98.9 | 98.8 | 112 | 20.6 | 0.0893
KCL-22 [8] | 112 | 101 | 89.9 | 38.3 | -0.332
KG-1 [13] | 107 | 90.2 | 94.9 | 20.2 | -0.961
KU-812 [4] | 104 | 89.1 | 99.2 | 20.9 | -0.694
LAMA-84 [14] | 105 | 95.6 | 101 | 36.1 | 1.35
ML-2 [7] | 101 | 96.2 | 95.8 | 2.66 | -0.682
MOLM-13 [2] | 104 | 101 | 107 | 5.3 | -0.664
MV4-11 [11] | 96 | 113 | 83.9 | 0.103 | -0.335
Mono-Mac-6 [5] | 111 | 102 | 104 | 30 | -0.648
NOMO-1 [15] | 105 | 99.7 | 100 | 7.84 | -0.348
SHI-1 [3] | 99.5 | 103 | 95.4 | 16.8 | -0.637
THP-1 [6] | 100 | 98.2 | 106 | 10.8 | -1.37

Settings | IC50 (cell viability) [µM]
BV-173 [25] | 0.309
HEL [27] | 1.51
HL-60 [24] | 3.23
K-562 [16] | 0.549
KCL-22 [23] | 0.664
KG-1 [28] | 0.507
KU-812 [19] | 0.53
LAMA-84 [29] | 0.747
ML-2 [22] | 0.307
MOLM-13 [17] | 0.381
MV4-11 [26] | 0.219
Mono-Mac-6 [20] | 0.664
NOMO-1 [30] | 0.369
SHI-1 [18] | 0.45
THP-1 [21] | 0.424

CC(C)CC(=O)N[C@H](C(=O)N[C@H](C(=O)N[C@@H](CC(C)C)[C@@H](O)CC(=O)N[C@@H](C)C(=O)N[C@@H](CC(C)C)[C@@H](O)CC(=O)O)C(C)C)C(C)C [Pepstatin A]
cell viability [%]
Settings | 1 nM | 10 nM | 100 nM | 1000 nM | 10000 nM
BV-173 [10] | 94.2 | 86.5 | 106 | 101 | 88.4
HEL [12] | 98.8 | 88.3 | 95.8 | 105 | 95.3
HL-60 [9] | 99.7 | 73.7 | 111 | 144 | 84.6
K-562 [1] | 95.1 | 85.5 | 96.9 | 101 | 87.9
KCL-22 [8] | 97.4 | 74.5 | 101 | 101 | 98.7
KG-1 [13] | 99.1 | 77.5 | 96.8 | 90.7 | 93.9
KU-812 [4] | 102 | 101 | 96.8 | 111 | 95.9
LAMA-84 [14] | 92.2 | 87.2 | 103 | 96.2 | 103
ML-2 [7] | 96.5 | 84.5 | 105 | 106 | 91.8
MOLM-13 [2] | 109 | 93.8 | 109 | 126 | 86.5
MV4-11 [11] | 87.7 | 77.9 | 90 | 92.3 | 81.8
Mono-Mac-6 [5] | 101 | 83.7 | 104 | 100 | 101
NOMO-1 [15] | 98.3 | 86.8 | 106 | 104 | 102
SHI-1 [3] | 93 | 87.5 | 111 | 105 | 105
THP-1 [6] | 96.3 | 87.1 | 103 | 96.1 | 97

Settings | IC50 (cell viability) [µM]
BV-173 [25] | > 10
HEL [27] | > 10
HL-60 [24] | > 10
K-562 [16] | > 10
KCL-22 [23] | > 10
KG-1 [28] | > 10
KU-812 [19] | > 10
LAMA-84 [29] | > 10
ML-2 [22] | > 10
MOLM-13 [17] | > 10
MV4-11 [26] | > 10
Mono-Mac-6 [20] | > 10
NOMO-1 [30] | > 10
SHI-1 [18] | > 10
THP-1 [21] | > 10
